# Test results as given in ChEMBL document CHEMBL3868595, “Plazomicin is effective in a non-human primate pneumonic plague model” (Bioorg Med Chem, 2016).
# Experiments:
# Yersinia pestis [1] = test: Antibacterial activity against Yersinia pestis Colorado 92 infected in African green monkey B6106 model assessed as bacterial burden in liver at 25 mg/kg, iv administered within 6 hrs post onset of sustained fever as 30 mins infusion for 5 days (reference value: 5.2 10^8CFU/g); assay type: functional, CO92
# African green monkey [2] = test: Toxicity in African green monkey 7929 model infected with Yersinia pestis Colorado 92 assessed as serum creatinine level at 25 mg/kg, iv administered within 6 hrs post onset of sustained fever as 30 mins infusion for 10 days (reference value: 1 mg/dl); assay type: organism-based; conditions: chlorocebus sabaeus, in vivo
# African green monkey [3] = test: Toxicity in African green monkey B6408 model infected with Yersinia pestis Colorado 92 assessed as blood urea nitrogen level at 25 mg/kg, iv administered within 6 hrs post onset of sustained fever as 30 mins infusion for 10 days (reference value: 22 mg/dl); assay type: organism-based; conditions: chlorocebus sabaeus, in vivo
# [4] = Clearance in African green monkey blood at 25 mg/kg administered as iv infusion twice daily for 7 consecutive days measured on day 7 by LC-MS/MS analysis; assay type: ADME, organism-based; conditions: chlorocebus aethiops
# Yersinia pestis [5] = test: Antibacterial activity against Yersinia pestis Colorado 92 infected in African green monkey B6469 model assessed as bacterial burden in kidney at 25 mg/kg, iv administered within 6 hrs post onset of sustained fever as 30 mins infusion for 5 days (reference value: 7.1 10^7CFU/g); assay type: functional, organism-based; conditions: CO92
# Yersinia pestis [6] = test: (§1) Antibacterial activity against Yersinia pestis Colorado 92 infected in African green monkey B6672 model assessed as bacterial burden in lung at 12.5 mg/kg, iv administered within 6 hrs post onset of sustained fever as 30 mins infusion for 5 days (reference value: 7.7 10^8CFU/g); assay type: functional, CO92
# African green monkey [7] = test: Toxicity in African green monkey B6127 model infected with Yersinia pestis Colorado 92 assessed as elevation of blood urea nitrogen at 25 mg/kg, iv administered within 6 hrs post onset of sustained fever as 30 mins infusion for 10 days; assay type: organism-based; conditions: chlorocebus sabaeus, in vivo
# African green monkey [8] = test: Toxicity in African green monkey 8067 model infected with Yersinia pestis Colorado 92 assessed as serum creatinine level at 25 mg/kg, iv administered within 6 hrs post onset of sustained fever as 30 mins infusion for 10 days (reference value: 0.8 mg/dl); assay type: organism-based; conditions: chlorocebus sabaeus, in vivo
# Yersinia pestis [9] = test: Antibacterial activity against Yersinia pestis Colorado 92 infected in African green monkey C2083 model assessed as bacterial burden in brain at 12.5 mg/kg, iv administered within 6 hrs post onset of sustained fever as 30 mins infusion for 5 days (reference value: 1.9 10^6CFU/g); assay type: functional, CO92
# Yersinia pestis [10] = test: as §1, with “B6783” for “B6672”, “tracheobronchial lymph nodes” for “lung”, “10^9CFU/g)” for “10^8CFU/g)”; assay type: functional, CO92, Lymph node
# [11] = Cmax in African green monkey blood at 25 mg/kg administered as iv infusion twice daily for 7 consecutive days measured on day 7 by LC-MS/MS analysis; assay type: ADME, organism-based; set-up: dose 25 mg/kg, route intravenous; conditions: chlorocebus aethiops
# Yersinia pestis [12] = test: Antibacterial activity against Yersinia pestis Colorado 92 infected in African green monkey C2083 model assessed as bacterial burden in spleen at 12.5 mg/kg, iv administered within 6 hrs post onset of sustained fever as 30 mins infusion for 5 days (reference value: 1.6 10^9CFU/g); assay type: functional, CO92
# Yersinia pestis [13] = test: Antibacterial activity against Yersinia pestis Colorado 92 infected in African green monkey B6106 model assessed as bacterial burden in spleen at 25 mg/kg, iv administered within 6 hrs post onset of sustained fever as 30 mins infusion for 5 days (reference value: 1.6 10^9CFU/g); assay type: functional, CO92
# African green monkey [14] = test: Toxicity in African green monkey B6127 model infected with Yersinia pestis Colorado 92 assessed as inappetence at 25 mg/kg, iv administered within 6 hrs post onset of sustained fever as 30 mins infusion for 10 days; assay type: organism-based; conditions: chlorocebus sabaeus, in vivo
# Yersinia pestis [15] = test: Antibacterial activity against Yersinia pestis Colorado 92 infected in African green monkey C2083 model assessed as bacterial burden in kidney at 12.5 mg/kg, iv administered within 6 hrs post onset of sustained fever as 30 mins infusion for 5 days (reference value: 7.1 10^7CFU/g); assay type: functional, CO92
# Yersinia pestis [16] = test: Antibacterial activity against Yersinia pestis Colorado 92 infected in African green monkey B6436 model assessed as bacterial burden in spleen at 25 mg/kg, iv administered within 6 hrs post onset of sustained fever as 30 mins infusion for 5 days (reference value: 1.6 10^9CFU/g); assay type: functional, organism-based; conditions: CO92
# Yersinia pestis [17] = test: Antibacterial activity against Yersinia pestis Colorado 92 infected in African green monkey B6106 model assessed as bacterial burden in lung at 25 mg/kg, iv administered within 6 hrs post onset of sustained fever as 30 mins infusion for 5 days (reference value: 7.7 10^8CFU/g); assay type: functional, CO92
# African green monkey [18] = test: Toxicity in African green monkey 7643 model infected with Yersinia pestis Colorado 92 assessed as serum creatinine level at 25 mg/kg, iv administered within 6 hrs post onset of sustained fever as 30 mins infusion for 10 days (reference value: 0.5 mg/dl); assay type: organism-based; conditions: chlorocebus sabaeus, in vivo
# Yersinia pestis [19] = test: as §1, with “B6889” for “B6672”, “tracheobronchial lymph nodes” for “lung”, “6.25” for “12.5”, “10^9CFU/g)” for “10^8CFU/g)”; assay type: functional, CO92, Lymph node
# [20] = Elimination half life in African green monkey blood at 25 mg/kg administered as iv infusion twice daily for 7 consecutive days measured on day 1 by LC-MS/MS analysis; assay type: ADME, organism-based; conditions: chlorocebus aethiops, read-out: beta t1/2 (converted)
# African green monkey [21] = test: Toxicity in African green monkey 7972 model infected with Yersinia pestis Colorado 92 assessed as serum creatinine level at 25 mg/kg, iv administered within 6 hrs post onset of sustained fever as 30 mins infusion for 10 days (reference value: 0.8 mg/dl); assay type: organism-based; conditions: chlorocebus sabaeus, in vivo
# African green monkey [22] = test: Toxicity in African green monkey B6428 model infected with Yersinia pestis Colorado 92 assessed as serum lactate dehydrogenase level at 25 mg/kg, iv administered within 6 hrs post onset of sustained fever as 30 mins infusion for 10 days (reference value: 238 IU/L); assay type: organism-based; conditions: chlorocebus sabaeus, in vivo
# African green monkey [23] = test: Toxicity in African green monkey 7653 model infected with Yersinia pestis Colorado 92 assessed as blood urea nitrogen level at 25 mg/kg, iv administered within 6 hrs post onset of sustained fever as 30 mins infusion for 10 days (reference value: 22 mg/dl); assay type: organism-based; conditions: chlorocebus sabaeus, in vivo
# African green monkey [24] = test: Toxicity in African green monkey B6127 model infected with Yersinia pestis Colorado 92 assessed as effect on serum electrolyte abnormality at 25 mg/kg, iv administered within 6 hrs post onset of sustained fever as 30 mins infusion for 10 days; assay type: organism-based; conditions: chlorocebus sabaeus, in vivo
# African green monkey [25] = test: Toxicity in African green monkey 7972 model infected with Yersinia pestis Colorado 92 assessed as serum gamma glutamyl-transferase level at 25 mg/kg, iv administered within 6 hrs post onset of sustained fever as 30 mins infusion for 10 days (reference value: 46 IU/L); assay type: organism-based; conditions: chlorocebus sabaeus, in vivo
# Yersinia pestis [26] = test: Antibacterial activity against Yersinia pestis Colorado 92 infected in African green monkey B6960 model assessed as bacterial burden in spleen at 6.25 mg/kg, iv administered within 6 hrs post onset of sustained fever as 30 mins infusion for 5 days (reference value: 1.6 10^9CFU/g); assay type: functional, CO92
# [27] = Cmax in African green monkey blood at 35 mg/kg administered as iv infusion twice daily for 7 consecutive days measured on day 1 by LC-MS/MS analysis; assay type: ADME, organism-based; set-up: dose 35 mg/kg, route intravenous; conditions: chlorocebus aethiops
smiles,measurement,setting,value
CN[C@@H]1[C@@H](O)[C@@H](O[C@@H]2[C@@H](O)[C@H](O[C@H]3OC(CNCCO)=CC[C@H]3N)[C@@H](N)C[C@H]2NC(=O)[C@@H](O)CCN)OC[C@]1(C)O [PLAZOMICIN],Activity,Yersinia pestis [1],95 CFU/g
same,Activity,African green monkey [2],0.9 mg/dL
same,Activity,African green monkey [3],20 mg/dL
same,clearance,[4],1.83 mL/min/kg
same,Activity,Yersinia pestis [5],Below limit of detection
same,Activity,Yersinia pestis [6],9.2 ×10⁹ CFU/g
same,Activity,African green monkey [7],Toxic
same,Activity,African green monkey [8],0.8 mg/dL
same,Activity,Yersinia pestis [9],2.2 ×10⁶ CFU/g
same,Activity,Yersinia pestis [10],6.3 ×10⁹ CFU/g
same,Cmax,[11],106 µg/mL
same,Activity,Yersinia pestis [12],1.5 ×10⁷ CFU/g
same,Activity,Yersinia pestis [13],31 CFU/g
same,Activity,African green monkey [14],Toxic
same,Activity,Yersinia pestis [15],3.1 ×10⁶ CFU/g
same,Activity,Yersinia pestis [16],Below limit of detection
same,Activity,Yersinia pestis [17],19 CFU/g
same,Activity,African green monkey [18],0.4 mg/dL
same,Activity,Yersinia pestis [19],3.6 ×10⁹ CFU/g
same,half-life,[20],1.8 h
same,Activity,African green monkey [21],0.7 mg/dL
same,Activity,African green monkey [22],299 IU/L
same,Activity,African green monkey [23],26 mg/dL
same,Activity,African green monkey [24],Toxic
same,Activity,African green monkey [25],38 IU/L
same,Activity,Yersinia pestis [26],23 CFU/g
same,Cmax,[27],176 µg/mL
